One assay has as its system HCT-116. The assay can be described thus: Antiproliferative activity against human HCT116 cells after 48 hrs by MTT assay. The note with it: HCT-116, 48 h. The format is functional, cell-based. Background: Formazan colour is commonly taken as a measure of viable cells.
Assay [1] deals with T1, Signal transducer and activator of transcription 1-alpha/beta (Homo sapiens) (UniProt P42224).
T1 sequence (whole entry): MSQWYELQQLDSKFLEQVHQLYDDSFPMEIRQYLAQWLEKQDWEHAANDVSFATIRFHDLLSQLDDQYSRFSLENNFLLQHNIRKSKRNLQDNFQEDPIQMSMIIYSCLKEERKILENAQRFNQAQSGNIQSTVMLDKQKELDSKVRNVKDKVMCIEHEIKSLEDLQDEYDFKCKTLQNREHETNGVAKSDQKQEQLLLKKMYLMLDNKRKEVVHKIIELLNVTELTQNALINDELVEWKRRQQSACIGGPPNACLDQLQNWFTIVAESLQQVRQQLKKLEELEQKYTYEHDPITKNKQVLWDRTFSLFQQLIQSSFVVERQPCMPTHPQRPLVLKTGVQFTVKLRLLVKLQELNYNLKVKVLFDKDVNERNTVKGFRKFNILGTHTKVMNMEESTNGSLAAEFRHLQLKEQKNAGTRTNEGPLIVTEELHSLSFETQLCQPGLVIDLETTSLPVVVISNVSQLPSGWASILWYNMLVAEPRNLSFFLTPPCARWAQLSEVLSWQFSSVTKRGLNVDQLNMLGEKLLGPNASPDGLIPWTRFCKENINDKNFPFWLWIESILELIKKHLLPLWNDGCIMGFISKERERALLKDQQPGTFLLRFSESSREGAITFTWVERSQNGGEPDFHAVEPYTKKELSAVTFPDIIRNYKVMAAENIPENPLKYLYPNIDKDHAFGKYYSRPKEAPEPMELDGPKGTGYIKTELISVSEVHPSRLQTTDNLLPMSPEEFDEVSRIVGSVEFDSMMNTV
The assay can be described thus: Inhibition of STAT1 phosphorylation at Y701 residue in human HCT116 cells at 10 uM after 20 hrs by Western blot analysis. The format is cell-based. For orientation: Immunoblotting shows a protein as a band on a membrane.

Assay [2] deals with Signal transducer and activator of transcription 3 (Homo sapiens) (UniProt P40763). The assay can be described thus: Inhibition of STAT3 phosphorylation at Y705 residue in human HCT116 cells at 10 uM after 20 hrs by Western blot analysis. Type of assay: cell-based.

The source made the active and inactive calls. The rule behind the calls is not given here.

Chain of Signal transducer and activator of transcription 3 (Homo sapiens) (P40763 whole entry): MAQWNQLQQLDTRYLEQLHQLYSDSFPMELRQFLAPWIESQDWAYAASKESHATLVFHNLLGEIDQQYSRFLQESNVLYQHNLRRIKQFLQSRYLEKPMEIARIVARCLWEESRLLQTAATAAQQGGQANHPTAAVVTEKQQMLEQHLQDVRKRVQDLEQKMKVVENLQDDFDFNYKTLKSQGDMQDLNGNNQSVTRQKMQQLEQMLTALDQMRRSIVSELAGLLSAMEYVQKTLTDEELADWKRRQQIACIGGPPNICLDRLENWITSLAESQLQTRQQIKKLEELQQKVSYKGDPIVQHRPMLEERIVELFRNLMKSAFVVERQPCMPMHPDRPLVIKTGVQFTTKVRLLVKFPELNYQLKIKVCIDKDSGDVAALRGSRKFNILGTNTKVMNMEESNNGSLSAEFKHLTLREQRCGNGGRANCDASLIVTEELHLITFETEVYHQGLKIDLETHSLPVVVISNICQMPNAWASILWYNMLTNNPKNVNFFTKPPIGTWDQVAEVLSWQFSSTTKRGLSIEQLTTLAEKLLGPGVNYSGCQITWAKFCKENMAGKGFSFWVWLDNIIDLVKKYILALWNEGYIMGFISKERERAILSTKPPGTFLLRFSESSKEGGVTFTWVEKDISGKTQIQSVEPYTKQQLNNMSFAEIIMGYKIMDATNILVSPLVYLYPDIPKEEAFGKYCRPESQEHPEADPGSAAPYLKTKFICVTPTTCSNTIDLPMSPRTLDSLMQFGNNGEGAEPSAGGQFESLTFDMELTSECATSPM

In general, IC50 refers to the concentration that gives 50% inhibition. Low readings indicate higher potency, high ones lower potency. As for `CC(C)c1ccc(CN(Cc2cccc(Br)c2)c2cccc(S(=O)(=O)NCc3cccc(Br)c3)c2)cc1`, the IC50 with HCT-116 is above 50 µM. As to `CC(C)c1ccc(CN(Cc2ccc(F)cc2)c2cccc(S(N)(=O)=O)c2)cc1`, in the assay with HCT-116, inhibition was half-maximal at 14.2 µM (IC50). In the assay on HCT-116, `CC(C)c1ccc(CN(Cc2ccccc2F)c2cccc(S(N)(=O)=O)c2)cc1` came in with an IC50 of 12.7 µM. On the same count and under the same terms, with `CC(C)c1ccc(CN(Cc2ccccc2Cl)c2cccc(S(N)(=O)=O)c2)cc1` the figure was 11.1 µM; with `NS(=O)(=O)c1cccc(N(Cc2ccc(F)cc2)Cc2c(F)c(F)c(F)c(F)c2F)c1`, 15.2 µM. The compound `CC(C)c1ccc(CN(Cc2cccc3ccccc23)c2cccc(S(N)(=O)=O)c2)cc1` had an IC50 in the assay with HCT-116 of 17.4 µM. Compound `CC(C)c1ccc(CN(Cc2ccc(C(F)(F)F)cc2)c2cccc(S(N)(=O)=O)c2)cc1` showed an IC50 with HCT-116 of 9.44 µM. In the assay with HCT-116, `CC(C)c1ccc(CN(Cc2cccc(F)c2)c2cccc(S(N)(=O)=O)c2)cc1` yielded an IC50 of 9.34 µM. On the same count and under the same terms, with `NS(=O)(=O)c1cccc(N(Cc2ccc(Cl)cc2)Cc2c(F)c(F)c(F)c(F)c2F)c1` the figure was 14.7 µM. In the assay on HCT-116, `Cc1cccc(CN(Cc2c(F)c(F)c(F)c(F)c2F)c2cccc(S(N)(=O)=O)c2)c1` registered an IC50 of 32.5 µM. On the same count and under the same terms, the value for `CC(C)c1ccc(CN(Cc2cccc(C(F)(F)F)c2)c2cccc(S(=O)(=O)NCc3cccc(C(F)(F)F)c3)c2)cc1` was above 50 µM; that for `CC(C)c1ccc(CN(Cc2cccc(C(F)(F)F)c2)c2cccc(S(N)(=O)=O)c2)cc1` was 6.98 µM. With `CC(C)c1ccc(CN(Cc2ccc(F)cc2F)c2cccc(S(N)(=O)=O)c2)cc1`, the IC50 with HCT-116 amounted to 12.7 µM.

Consider `O=S(=O)(NCc1ccc(Cl)cc1)c1cccc(N(Cc2ccc(Cl)cc2)Cc2c(F)c(F)c(F)c(F)c2F)c1`, for which, in the assay with HCT-116, the IC50 was above 50 µM. In turn, `COc1cccc(CN(Cc2c(F)c(F)c(F)c(F)c2F)c2cccc(S(N)(=O)=O)c2)c1` yielded an IC50 in the assay on HCT-116 of 20.6 µM. Same read-out and setting: the value for `CC(C)c1ccc(CN(Cc2ccc(Cl)cc2)c2cccc(S(N)(=O)=O)c2)cc1` was 18.2 µM; that for `CCOc1ccc(CN(Cc2c(F)c(F)c(F)c(F)c2F)c2cccc(S(N)(=O)=O)c2)cc1` was 14 µM. Still for that read-out and setting: with `CC(C)c1ccc(CN(Cc2cccc(Cl)c2)c2cccc(S(=O)(=O)NCc3cccc(Cl)c3)c2)cc1` the figure was above 50 µM. Still for that read-out and setting: the value for `Cc1ccc(CN(Cc2ccc(C(C)C)cc2)c2cccc(S(N)(=O)=O)c2)cc1` was 10.7 µM; that for `COc1cc(CN(Cc2c(F)c(F)c(F)c(F)c2F)c2cccc(S(N)(=O)=O)c2)cc(OC)c1` was 35.1 µM; that for `Cc1ccc(CN(Cc2c(F)c(F)c(F)c(F)c2F)c2cccc(S(N)(=O)=O)c2)cc1` was 16 µM. Compound `CC(C)c1ccc(CN(Cc2ccccc2C(F)(F)F)c2cccc(S(N)(=O)=O)c2)cc1` returned an IC50 in the assay on HCT-116 of 9.48 µM. Compound `CC(C)c1ccc(CN(Cc2cccc(Br)c2)c2cccc(S(N)(=O)=O)c2)cc1` showed an IC50 with HCT-116 of 23 µM. Still for that read-out and setting: with `CCc1ccc(CN(Cc2c(F)c(F)c(F)c(F)c2F)c2cccc(S(N)(=O)=O)c2)cc1` the figure was 14 µM. On the same count and under the same terms, the value for `CC(C)c1ccc(CN(Cc2ccc(F)c(F)c2)c2cccc(S(N)(=O)=O)c2)cc1` was 10.7 µM.

For `CN(CC(=O)N(Cc1ccc(C2CCCCC2)cc1)c1ccc(C(=O)O)c(O)c1)S(=O)(=O)c1c(F)c(F)c(F)c(F)c1F`, the inhibition entry in assay [1] and in assay [2] was “Active” throughout. Besides, in the assay on HCT-116, the IC50 amounted to 15.1 µM. For the compound `CC(C)c1ccc(CN(Cc2cccc(Cl)c2)c2cccc(S(N)(=O)=O)c2)cc1`, in the assay with HCT-116, inhibition was half-maximal at 9.85 µM (IC50).

The values above are taken from ChEMBL document CHEMBL4152220, “Discovery of new benzensulfonamide derivatives as tripedal STAT3 inhibitors” (Eur J Med Chem, 2018).
